In patent publication US12077503B2, “Substituted cyclic amides and their use as herbicides” (FMC CORPORATION, priority 2015, dated 2024):

What was measured:
Type in all cases: in vivo
[1] = system: sedge, umbrella (small-flower umbrella sedge, Cyperus difformis); experiment: Test B flooded paddy test; conditions: Cyperus difformis, 250 g ai/ha, Flood; 0 to 100 scale where 0 is no effect and 100 is complete control; read-out: Sedge, Umbrella plant response rating
In short: (§1)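 Greenhouse paddy pots with 2-leaf stage plants received compound by direct addition to floodwater 3 cm deep, kept at that level. Scored visually at 13–15 d versus controls (0 no effect; 100 complete control).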

[2] = system: ducksalad (Heteranthera limosa); experiment: Test B flooded paddy test; conditions: Heteranthera limosa, 250 g ai/ha, Flood; 0 to 100 scale where 0 is no effect and 100 is complete control; read-out: Ducksalad plant response rating
In short: as §1

rice (Oryra sativa) = experiment: Test B flooded paddy test; conditions: Oryza sativa, 250 g ai/ha, Flood; 0 to 100 scale where 0 is no effect and 100 is complete control; read-out: Rice plant response rating
In short: as §1

[3] = system: barnyardgrass (Echinochloa crus-galli); experiment: Test B flooded paddy test; conditions: Echinochloa crus-galli, 250 g ai/ha, Flood; 0 to 100 scale where 0 is no effect and 100 is complete control; read-out: Barnyardgrass plant response rating
In short: as §1

[4] = system: pigweed (Amaranthus retroflexus); experiment: Test A preemergence; conditions: Amaranthus retroflexus, pre-emergence, 240 h, 0 to 100 scale where 0 is no effect and 100 is complete control, read-out: Pigweed plant response rating; for pest or weed control at 31 g/ha: 31 g ai/ha, Preemergence; for pest or weed control at 125 g/ha: 125 g ai/ha, preemergence, approx. 10 d
[5] = system: ragweed (common ragweed, Ambrosia elatior); experiment: Test A preemergence; conditions: Ambrosia artemisiifolia, pre-emergence, 240 h, 0 to 100 scale where 0 is no effect and 100 is complete control, read-out: Ragweed plant response rating; for pest or weed control at 31 g/ha: 31 g ai/ha, Preemergence; for pest or weed control at 125 g/ha: 125 g ai/ha, preemergence, approx. 10 d
In short: (§2)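 Greenhouse, ~10 d after spray; visual injury vs untreated controls, 0 = no effect, 100 = complete control. Preemergence: directed soil spray over planted seeds. Postemergence: plants 2–10 cm, 1–2 leaf stage. Loam/sand blend. Compound in non-phytotoxic solvent with surfactant.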

[6] = system: giant foxtail (Setaria faberii); experiment: Test A preemergence; conditions: Setaria faberi, pre-emergence, 240 h, 0 to 100 scale where 0 is no effect and 100 is complete control, read-out: Foxtail, Giant plant response rating; for pest or weed control at 31 g/ha: 31 g ai/ha, Preemergence; for pest or weed control at 125 g/ha: 125 g ai/ha, preemergence, approx. 10 d
In short: as §2

[7] = system: ryegrass, Italian (Italian ryegrass, Lolium multiflorum); experiment: Test A preemergence; conditions: Lolium multiflorum, pre-emergence, 240 h, 0 to 100 scale where 0 is no effect and 100 is complete control, read-out: Ryegrass, Italian plant response rating; for pest or weed control at 31 g/ha: 31 g ai/ha, Preemergence; for pest or weed control at 125 g/ha: 125 g ai/ha, preemergence, approx. 10 d
In short: as §2

Kochia (Kochia scoparia) [8] = experiment: Test A preemergence; conditions: Bassia scoparia, pre-emergence, 240 h, 0 to 100 scale where 0 is no effect and 100 is complete control, read-out: Kochia plant response rating; for pest or weed control at 31 g/ha: 31 g ai/ha, Preemergence; for pest or weed control at 125 g/ha: 125 g ai/ha, preemergence, approx. 10 d
In short: as §2

[9] = system: barnyardgrass (Echinochloa crus-galli); experiment: Test A preemergence; conditions: Echinochloa crus-galli, pre-emergence, 240 h, 0 to 100 scale where 0 is no effect and 100 is complete control, read-out: Barnyardgrass plant response rating; for pest or weed control at 31 g/ha: 31 g ai/ha, Preemergence; for pest or weed control at 125 g/ha: 125 g ai/ha, preemergence, approx. 10 d
In short: as §2

[10] = system: pigweed (Amaranthus retroflexus); experiment: Test A postemergence; conditions: Amaranthus retroflexus, post-emergence, 240 h; for pest or weed control at 125 g/ha: 125 g ai/ha, postemergence, visual injury vs untreated controls after approx. 10 d, 0 = no effect, 100 = complete control, read-out: Pigweed plant response rating (0 to 100 scale); for pest or weed control at 31 g/ha: Postemergence, 31 g ai/ha, visual injury after approx. 10 d, 0 to 100 scale, 0 no effect, 100 complete control, read-out: Plant response rating, Pigweed
In short: as §2

corn (Zea mays) = experiment: Test A postemergence; conditions: Zea mays, post-emergence, 240 h; for plant injury at 125 g/ha: 125 g ai/ha, postemergence, visual injury on 0 to 100 scale (0 no effect, 100 complete control), approx. 10 d, read-out: Corn plant response rating; for Corn plant response rating (crop injury, 0 = no effect, 100 = complete kill) at 31 g/ha: Postemergence, 31 g ai/ha, visual injury after approx. 10 d, 0 to 100 scale, 100 complete control
In short: as §2

[11] = system: ragweed (common ragweed, Ambrosia elatior); experiment: Test A postemergence; conditions: Ambrosia artemisiifolia, post-emergence, 240 h; for pest or weed control at 125 g/ha: 125 g ai/ha, postemergence, visual injury vs untreated controls after approx. 10 d, 0 = no effect, 100 = complete control, read-out: Ragweed plant response rating (0 to 100 scale); for pest or weed control at 31 g/ha: Postemergence, 31 g ai/ha, visual injury after approx. 10 d, 0 to 100 scale, 0 no effect, 100 complete control, read-out: Plant response rating, Ragweed
In short: as §2

[12] = system: wheat (Triticum aestivum); experiment: Test A postemergence; conditions: Triticum aestivum, post-emergence, 240 h; for plant injury at 125 g/ha: 125 g ai/ha, postemergence, visual injury vs untreated controls after approx. 10 d, 0 = no effect, 100 = complete control, read-out: Wheat plant response rating (0 to 100 scale); for plant injury at 31 g/ha: Postemergence, 31 g ai/ha, visual injury after approx. 10 d, 0 to 100 scale, 0 no effect, 100 complete control, read-out: Plant response rating, Wheat
In short: as §2

[13] = system: giant foxtail (Setaria faberii); experiment: Test A postemergence; conditions: Setaria faberi, post-emergence, 240 h; for pest or weed control at 125 g/ha: 125 g ai/ha, postemergence, visual injury on 0 to 100 scale (0 no effect, 100 complete control), approx. 10 d, read-out: Foxtail, Giant plant response rating; for pest or weed control at 31 g/ha: Postemergence, 31 g ai/ha, visual injury after approx. 10 d, 0 to 100 scale, 0 no effect, 100 complete control, read-out: Plant response rating, Foxtail, Giant
In short: as §2

[14] = system: ryegrass, Italian (Italian ryegrass, Lolium multiflorum); experiment: Test A postemergence; conditions: Lolium multiflorum, post-emergence, 240 h; for pest or weed control at 125 g/ha: 125 g ai/ha, postemergence, visual injury vs untreated controls after approx. 10 d, 0 = no effect, 100 = complete control, read-out: Ryegrass, Italian plant response rating (0 to 100 scale); for pest or weed control at 31 g/ha: Postemergence, 31 g ai/ha, visual injury after approx. 10 d, 0 to 100 scale, 0 no effect, 100 complete control, read-out: Plant response rating, Ryegrass, Italian
In short: as §2

Kochia (Kochia scoparia) [15] = experiment: Test A postemergence; conditions: Bassia scoparia, post-emergence, 240 h; for pest or weed control at 125 g/ha: 125 g ai/ha, postemergence, visual injury on 0 to 100 scale (0 no effect, 100 complete control), approx. 10 d, read-out: Kochia plant response rating; for pest or weed control at 31 g/ha: Postemergence, 31 g ai/ha, visual injury after approx. 10 d, 0 to 100 scale, 0 no effect, 100 complete control, read-out: Plant response rating, Kochia
In short: as §2

[16] = system: barnyardgrass (Echinochloa crus-galli); experiment: Test A postemergence; conditions: Echinochloa crus-galli, post-emergence, 240 h; for pest or weed control at 125 g/ha: 125 g ai/ha, postemergence, visual injury on 0 to 100 scale (0 no effect, 100 complete control), approx. 10 d, read-out: Barnyardgrass plant response rating; for pest or weed control at 31 g/ha: Postemergence, 31 g ai/ha, visual injury after approx. 10 d, 0 to 100 scale, 0 no effect, 100 complete control, read-out: Plant response rating, Barnyardgrass
In short: as §2

[17] = system: blackgrass (Alopecurus myosuroides); experiment: Test A postemergence; conditions: Alopecurus myosuroides, post-emergence, 240 h; for pest or weed control at 125 g/ha: 125 g ai/ha, postemergence, visual injury on 0 to 100 scale (0 no effect, 100 complete control), approx. 10 d, read-out: Blackgrass plant response rating; for pest or weed control at 31 g/ha: Postemergence, 31 g ai/ha, visual injury after approx. 10 d, 0 to 100 scale, 0 no effect, 100 complete control, read-out: Plant response rating, Blackgrass
In short: as §2

[18] = system: Galium (catchweed bedstraw, Galium aparine); experiment: Test A postemergence; conditions: Galium, post-emergence, 240 h; for pest or weed control at 125 g/ha: 125 g ai/ha, postemergence, visual injury on 0 to 100 scale (0 no effect, 100 complete control), approx. 10 d, read-out: Galium plant response rating; for pest or weed control at 31 g/ha: Postemergence, 31 g ai/ha, visual injury after approx. 10 d, 0 to 100 scale, 0 no effect, 100 complete control, read-out: Plant response rating, Galium
In short: as §2

CN1CC(c2cccc(C(F)(F)F)c2)C(C(=O)Nc2ccccc2CO)C1=O (stereo not drawn) [Compound 1145]
30%: pest or weed control at 250 g/ha (rice (Oryra sativa)) | pest or weed control at 125 g/ha [7]
20%: pest or weed control at 125 g/ha [14]
60%: pest or weed control at 250 g/ha [2] | pest or weed control at 31 g/ha [16]
90%: pest or weed control at 31 g/ha [6] | pest or weed control at 125 g/ha [6] | pest or weed control at 125 g/ha [9] | pest or weed control at 125 g/ha [13]
0%: pest or weed control at 31 g/ha [4] | pest or weed control at 125 g/ha [4] | pest or weed control at 31 g/ha [5] | pest or weed control at 125 g/ha [5] | pest or weed control at 31 g/ha [7] | pest or weed control at 31 g/ha (Kochia (Kochia scoparia) [8]) | pest or weed control at 125 g/ha [10] | pest or weed control at 31 g/ha [10] | Corn plant response rating (crop injury, 0 = no effect, 100 = complete kill) at 31 g/ha (corn (Zea mays)) | pest or weed control at 125 g/ha [11] | pest or weed control at 31 g/ha [11] | plant injury at 31 g/ha [12] | pest or weed control at 31 g/ha [14] | pest or weed control at 125 g/ha (Kochia (Kochia scoparia) [15]) | pest or weed control at 31 g/ha (Kochia (Kochia scoparia) [15]) | pest or weed control at 31 g/ha [17] | pest or weed control at 125 g/ha [18] | pest or weed control at 31 g/ha [18]
80%: pest or weed control at 31 g/ha [9] | pest or weed control at 125 g/ha [16]
75%: pest or weed control at 250 g/ha [3]
50%: pest or weed control at 125 g/ha (Kochia (Kochia scoparia) [8]) | plant injury at 125 g/ha (corn (Zea mays)) | pest or weed control at 31 g/ha [13] | pest or weed control at 125 g/ha [17]
40%: pest or weed control at 250 g/ha [1] | plant injury at 125 g/ha [12]

C=C(C)c1ccc([C@H]2CN(C)C(=O)[C@@H]2C(=O)Nc2cccc(F)c2F)cc1 [Compound 1149]
75%: pest or weed control at 250 g/ha [2]
80%: pest or weed control at 31 g/ha [6] | pest or weed control at 125 g/ha [13]
90%: pest or weed control at 125 g/ha [6] | pest or weed control at 125 g/ha [9] | pest or weed control at 125 g/ha [16]
20%: pest or weed control at 125 g/ha [7] | pest or weed control at 125 g/ha (Kochia (Kochia scoparia) [8]) | pest or weed control at 125 g/ha [14] | pest or weed control at 31 g/ha [18]
45%: pest or weed control at 250 g/ha [3]
0%: pest or weed control at 250 g/ha [1] | pest or weed control at 31 g/ha [4] | pest or weed control at 31 g/ha [5] | pest or weed control at 125 g/ha [5] | pest or weed control at 31 g/ha [7] | pest or weed control at 31 g/ha (Kochia (Kochia scoparia) [8]) | pest or weed control at 125 g/ha [10] | pest or weed control at 31 g/ha [10] | plant injury at 125 g/ha (corn (Zea mays)) | Corn plant response rating (crop injury, 0 = no effect, 100 = complete kill) at 31 g/ha (corn (Zea mays)) | pest or weed control at 125 g/ha [11] | pest or weed control at 31 g/ha [11] | plant injury at 125 g/ha [12] | plant injury at 31 g/ha [12] | pest or weed control at 31 g/ha [14] | pest or weed control at 31 g/ha (Kochia (Kochia scoparia) [15]) | pest or weed control at 125 g/ha [17] | pest or weed control at 31 g/ha [17]
70%: pest or weed control at 31 g/ha [9]
40%: pest or weed control at 125 g/ha [4] | pest or weed control at 31 g/ha [13]
50%: pest or weed control at 31 g/ha [16] | pest or weed control at 125 g/ha [18]
30%: pest or weed control at 250 g/ha (rice (Oryra sativa)) | pest or weed control at 125 g/ha (Kochia (Kochia scoparia) [15])
